Results reported in PubChem BioAssay (NCI).
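Growth conditions: 96-well plates. Treatment: test compound, 48 hours, 5 concentrations. Analysis: linear interpolation between bracketing concentrations; unreached endpoints set to highest concentration. GI50 marks 50% less growth. TGI: concentration producing complete growth inhibition.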

Tests used:
Experiment in all cases: DTP human tumour cell line panel, 48 h
COLO 205 colon = system: COLO 205 colon
SN12C renal = system: SN12C renal
A498 renal = system: A498 renal
786-0 renal = system: 786-0 renal
SF-268 CNS = system: SF-268 CNS
HOP-92 NSCLC = system: HOP-92 NSCLC
EKVX NSCLC = system: EKVX NSCLC
HCT-116 colon = system: HCT-116 colon
K-562 leukemia = system: K-562 leukemia
U251 CNS = system: U251 CNS

Compound	TGI (COLO 205 colon) [µM]	TGI (SN12C renal) [µM]	TGI (A498 renal) [µM]	TGI (786-0 renal) [µM]	TGI (SF-268 CNS) [µM]	TGI (HOP-92 NSCLC) [µM]	TGI (EKVX NSCLC) [µM]	TGI (HCT-116 colon) [µM]	TGI (K-562 leukemia) [µM]	TGI (U251 CNS) [µM]	GI50 (COLO 205 colon) [µM]	GI50 (SN12C renal) [µM]	GI50 (A498 renal) [µM]	GI50 (786-0 renal) [µM]	GI50 (SF-268 CNS) [µM]	GI50 (HOP-92 NSCLC) [µM]	GI50 (EKVX NSCLC) [µM]	GI50 (HCT-116 colon) [µM]	GI50 (K-562 leukemia) [µM]	GI50 (U251 CNS) [µM]
C1CCN2CC34CC(CC5CCCN(C6CCCC3N6)C54)C2C1 (stereo not given)	> 100	> 100	> 100	> 100	> 100	> 100	> 100	> 100	> 100	> 100										
COc1ccc(-c2nc(N)nc(-c3cc(C)ccc3O)c2Cl)cc1	> 100	> 100	> 100	> 100	> 100	> 100	> 100	> 100	> 100	> 100										
Clc1ccc(CCN2CCOCC2)c(Cl)c1	> 100	> 100	> 100	> 100	> 100	> 100	> 100	> 100	> 100	> 100										
CCCCCCCCSC(SCCCCCCCC)=C1C(=O)N(c2ccccc2)N=C1C	46.5	> 100	92.7	> 100	> 100	77.8	> 100	38.7	84.6	34										
CCc1ccc(/C=C2/SC(=S)NC2=O)cc1	33.7	81.4	36.4	81.3	> 100	26.4	73.2	59.5	> 100	62.6	18.3	20.3	6.15	22.6	24.5	3.41	21.9	21	29.3	18.7
Clc1cccc(C2SCc3nc4ccccc4n32)c1Cl (stereo not given)	36	32.5	29.2	32.8	36.5	30.1	30.8	33.5	45	31.7										
COc1cc(C(=O)c2c(-c3ccccc3)oc3ccccc23)cc(OC)c1O	43.3	26.3	5.76	17	18.6	12.7	58.2	12.5	44.5	16.1	18.9	5.23	2.09	4.15	3.4	0.595	3.85	1.04	0.4	3.21
Cn1cc(/C=C2\C(=O)Nc3cccnc32)c2ccccc21	> 25	> 25	> 25	> 25	> 25	24.8	> 25	> 25	> 25	> 25	20.6	9.88	4.73	> 25	> 21.7	2.51	11.1	14.7	> 18.4	> 25
O=C(O)C(O)C(O)C1[O][Sb][O]C1CO (stereo not given)	> 100	> 100	> 100	> 100	> 100	> 100	> 100	> 100	> 100	> 100	> 100	> 100	> 100	> 100	> 100	> 100	> 100	> 100	> 100	> 100
Cc1cc(C#Cc2ccccc2)ccc1-n1c(/C=C/c2ccc(O)cc2)nc2ccccc2c1=O	4.75	38.3	7.71	28.7	> 100	7.26	> 100	11	> 100	> 100	1.99	3.77	1.56	3.65	4.56	2.5	2.43	2.66	2	4.33
COc1ccc2c3c([nH]c2c1)[C@H]1C[C@H]2[C@H](C[C@@H](O)[C@H](OC)[C@H]2C(=O)O)CN1CC3	> 100	> 100	> 100	> 100	> 100	> 100	> 100	> 100	> 100	> 100										
Cc1[nH]nc(C(=O)N/N=C/c2cccs2)c1N=NN(C)C	28.2	> 100	91	69.6	37.1	55.1	> 100	> 100	> 100	32.1										
